# From patent US5807845A, “Therapeutic drug for acne vulgaris” (Senju Pharmaceutical Co., Ltd., priority 1996, dated 1998)
# Like-named read-outs stand apart in the source and are kept apart here.
# Key:
# [1] = test system: auricular sebaceous glands; test: Inhibitory effect on the increase in hamster auricular sebaceous gland area (testosterone propionate-induced); assay type: in vivo, Syrian hamster; conditions: 0.2%, 20 μl to right auricle twice daily for 2 weeks
# Procedure: It is known that, in acne vulgaris, the sebaceous gland function of the skin is enhanced by elevation of the androgen level. Therefore, the auricular sebaceous glands were expanded by subcutaneous administration of an androgen to hamsters and the inhibitory effect of the present compound on this enlargement was tested.
# Female Syrian hamsters purchased from SLC Japan were used at the age of 7 weeks.
# (2) 0.2% L-ascorbyl DL-α-tocopheryl phosphate potassium (abbreviation: EPC-K)
# In 1 ml of sesame oil was dissolved 80 μg of testosterone propionate and the solution was administered subcutaneously to hamsters every other day for 2 weeks to enlarge auricular sebaceous glands. The test material was applied in a volume of 20 μl to the right auricle twice daily for 2 weeks from the beginning of the test. The normal group was subjected to neither treatment. After 2 weeks, the hamsters were sacrificed. The right auricle was bored with a 9 mm-diameter punch and the sebaceous gland area was measured by the whole mount technique. The data were statistically analyzed by Dunnett's test. The level of significance was p<0.05.
# [2] = test system: Propionibacterium acnes (P. acnes); test: Minimal growth inhibitory concentration (MIC) against Propionibacterium acnes; assay type: cell-based, Propionibacterium acnes (clinically isolated strain); conditions: for MIC: Cutibacterium acnes
# Procedure: The minimal growth inhibitory concentration (MIC) of the present compound against P. acnes, which is a factor in the onset of acne vulgaris and a member of the normal flora of the skin, was determined.
# (1) EPC-K (dissolved in distilled water)
# Doubling dilutions from 10 mg/ml to 1.953125×10^-2 mg/ml in final concentration
# (2) dl-α-tocopherol and L-ascorbic acid (dissolved in a mixed solution which consists of HC-60 (trademark, manufactured by NOF corporation) and propyleneglycol)
# Dubling dilutions from 5 mg/ml to 7.8125×10^-2 mg/ml in final concentration
# (3) As control, the mixed solution mentioned above was tested.
# This test was performed by the method published by Committee for the Study of Methods for MIC Determination in Anaerobic Bacteria.
# A frozen clinically isolated strain of P. acnes was subcultured on GAM agar medium for 3 generations and suspended in saline at about 10^8 cells/ml. This cell suspension and a 100-fold dilution thereof were used as inocula.
# To molten GAM agar medium was added 1/9 volume of the test solution of a varying concentration and, after thorough mixing, sensitivity assay plates ranging from 10 mg/ml to 1.953125×10^-2 mg/ml in final concentration were prepared (plate pH 6.64-7.10). Using a loopful of the inoculum, each plate was streaked and incubated anaerobically at 37° C. for at least 48 hours. The incubated plate was then observed grossly and the lowest concentration causing a definite inhibition of growth was regarded as the MIC.
# The inoculum was serially diluted 10-fold down to […] and GAM medium was inoculated with each dilution. After culture, the number of colonies were similarly countered for confirmation of the cell count.
# Toxicity, LD50 in rat = conditions: in vivo, intravenous
# [3] = 0.15625 mg/ml, 10^6 CFU/ml (Table 3)
# [4] = 0.15625 mg/ml, 10^8 CFU/ml (Table 3)
# [5] = 0.3125 mg/ml, 10^6 CFU/ml (Table 3)
# [6] = 0.3125 mg/ml, 10^8 CFU/ml (Table 3)
# [7] = 0.625 mg/ml, 10^6 CFU/ml (Table 3)
# [8] = 0.625 mg/ml, 10^8 CFU/ml (Table 3)
# [9] = 1.25 mg/ml, 10^6 CFU/ml (Table 3)
# [10] = 1.25 mg/ml, 10^8 CFU/ml (Table 3)
# [11] = 2.5 mg/ml, 10^6 CFU/ml (Table 3)
# [12] = 2.5 mg/ml, 10^8 CFU/ml (Table 3)
# [13] = 5.0 mg/ml, 10^6 CFU/ml (Table 3)
# [14] = 5.0 mg/ml, 10^8 CFU/ml (Table 3)
# [15] = 7.8125 × 10^-2 mg/ml, 10^6 CFU/ml (Table 3)
# [16] = 7.8125 × 10^-2 mg/ml, 10^8 CFU/ml (Table 3)
# [17] = vitamins in HC-60/propyleneglycol mixed solution, cell counts 10^8 and 10^6 CFU/ml (Table 3), read-out: MIC
structure (smiles),measurement,setting,value
"Cc1c(C)c2c(c(C)c1OP(=O)(O)OC1=C(O)[C@@H]([C@@H](O)CO)OC1=O)CCC(C)(CCCC(C)CCCC(C)CCCC(C)C)O2 (mixture of isomers) [EPC-K, L-ascorbyl DL-α-tocopheryl phosphate potassium]",Area (auricular sebaceous gland area),"[1]; mean ± standard deviation (n = 7-8), p < 0.01 vs. methanol control",3327 ± 225 μm^2
same,% Inhibition of the increase in auricular sebaceous gland area,[1]; vs. methanol control,72.5%
same,Growth of P. acnes,"[2]; 0.15625 mg/ml, 10^6 CFU/ml (Table 2)",+
same,Growth of P. acnes,"[2]; 0.15625 mg/ml, 10^8 CFU/ml (Table 2)",+
same,Growth of P. acnes,"[2]; 0.3125 mg/ml, 10^6 CFU/ml (Table 2)",-
same,Growth of P. acnes,"[2]; 0.3125 mg/ml, 10^8 CFU/ml (Table 2)",+
same,Growth of P. acnes,"[2]; 0.625 mg/ml, 10^6 CFU/ml (Table 2)",-
same,Growth of P. acnes,"[2]; 0.625 mg/ml, 10^8 CFU/ml (Table 2)",-
same,Growth of P. acnes,"[2]; 1.25 mg/ml, 10^6 CFU/ml (Table 2)",-
same,Growth of P. acnes,"[2]; 1.25 mg/ml, 10^8 CFU/ml (Table 2)",-
same,Growth of P. acnes,"[2]; 2.5 mg/ml, 10^6 CFU/ml (Table 2)",-
same,Growth of P. acnes,"[2]; 2.5 mg/ml, 10^8 CFU/ml (Table 2)",-
same,Growth of P. acnes,"[2]; 5.0 mg/ml, 10^6 CFU/ml (Table 2)",-
same,Growth of P. acnes,"[2]; 5.0 mg/ml, 10^8 CFU/ml (Table 2)",-
same,Growth of P. acnes,"[2]; 10.0 mg/ml, 10^6 CFU/ml (Table 2)",-
same,Growth of P. acnes,"[2]; 10.0 mg/ml, 10^8 CFU/ml (Table 2)",-
same,Growth of P. acnes,"[2]; 1.953125 × 10^-2 mg/ml, 10^6 CFU/ml (Table 2)",+
same,Growth of P. acnes,"[2]; 1.953125 × 10^-2 mg/ml, 10^8 CFU/ml (Table 2)",+
same,Growth of P. acnes,"[2]; 3.90625 × 10^-2 mg/ml, 10^6 CFU/ml (Table 2)",+
same,Growth of P. acnes,"[2]; 3.90625 × 10^-2 mg/ml, 10^8 CFU/ml (Table 2)",+
same,Growth of P. acnes,"[2]; 7.8125 × 10^-2 mg/ml, 10^6 CFU/ml (Table 2)",+
same,Growth of P. acnes,"[2]; 7.8125 × 10^-2 mg/ml, 10^8 CFU/ml (Table 2)",+
same,MIC,"[2]; cell count 10^6 /ml, EPC-K dissolved in distilled water",312 mg/L
same,MIC,"[2]; cell count 10^8 /ml, EPC-K dissolved in distilled water",625 mg/L
same,LD50,"Toxicity, LD50 in rat",≥ 100 mg/kg
"O=C1O[C@H]([C@@H](O)CO)C(O)=C1O [L-Ascorbic acid, L-ascorbic acid]",Growth of P. acnes,[2]; [3],+
same,Growth of P. acnes,[2]; [4],+
same,Growth of P. acnes,[2]; [5],+
same,Growth of P. acnes,[2]; [6],+
same,Growth of P. acnes,[2]; [7],+
same,Growth of P. acnes,[2]; [8],+
same,Growth of P. acnes,[2]; [9],+
same,Growth of P. acnes,[2]; [10],+
same,Growth of P. acnes,[2]; [11],+
same,Growth of P. acnes,[2]; [12],+
same,Growth of P. acnes,[2]; [13],+
same,Growth of P. acnes,[2]; [14],+
same,Growth of P. acnes,[2]; [15],+
same,Growth of P. acnes,[2]; [16],+
same,MIC,[2]; [17],≥ 5000 mg/L
"Cc1c(C)c2c(c(C)c1O)CCC(C)(CCCC(C)CCCC(C)CCCC(C)C)O2 (racemic) [dl-α-Tocopherol, dl-α-tocopherol]",Growth of P. acnes,[2]; [3],+
same,Growth of P. acnes,[2]; [4],+
same,Growth of P. acnes,[2]; [5],+
same,Growth of P. acnes,[2]; [6],+
same,Growth of P. acnes,[2]; [7],+
same,Growth of P. acnes,[2]; [8],+
same,Growth of P. acnes,[2]; [9],+
same,Growth of P. acnes,[2]; [10],+
same,Growth of P. acnes,[2]; [11],+
same,Growth of P. acnes,[2]; [12],+
same,Growth of P. acnes,[2]; [13],+
same,Growth of P. acnes,[2]; [14],+
same,Growth of P. acnes,[2]; [15],+
same,Growth of P. acnes,[2]; [16],+
same,MIC,[2]; [17],≥ 5000 mg/L
